Like-named read-outs stand apart in the source and are kept apart here.
Legend:
BSA = target: T1, BSA (Bos taurus, UniProt P02769); parameters: Intact protein LC/MS covalent labelling, fragments in pools of five, 200 uM each, 4 °C; conditions: 24 h, 4 °C, pool of five; 200 µM; covalent
T1 construct: gene ALB

NUDT7 = target: T2, NUDT7 (Homo sapiens, UniProt P0C024); parameters: Intact protein LC/MS covalent labelling, fragments in pools of five, 200 uM each, 4 °C; conditions: 24 h, 4 °C, pool of five; 200 µM; covalent
T2 construct: residues 14-235, E. coli, pNIC28-Bsa4, N-terminal His6 tag removed by TEV, construct 26672 Da

OTUB2 (OTUB2A) = target: T3, OTUB2 (OTUB2A) (Homo sapiens, UniProt Q96DC9); parameters: Intact protein LC/MS covalent labelling, fragments in pools of five, 200 uM each, 4 °C; conditions: 24 h, 4 °C, pool of five; 200 µM; covalent
T3 construct: full length residues 1-234, E. coli BL21(DE3)-R3, His tag removed by TEV, construct 27312 Da
T3 sequence (Q96DC9 1-234): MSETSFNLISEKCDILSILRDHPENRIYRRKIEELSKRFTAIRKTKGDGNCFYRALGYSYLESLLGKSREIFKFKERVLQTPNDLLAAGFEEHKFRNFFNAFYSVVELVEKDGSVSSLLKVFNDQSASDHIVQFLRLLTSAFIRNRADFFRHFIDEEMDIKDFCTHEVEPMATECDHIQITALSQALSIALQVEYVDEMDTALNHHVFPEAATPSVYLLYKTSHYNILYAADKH

PCAF = target: T4, PCAF (Homo sapiens, UniProt Q92831); parameters: Intact protein LC/MS covalent labelling, fragments in pools of five, 200 uM each, 4 °C; conditions: 24 h, 4 °C, pool of five; 200 µM; covalent
T4 construct: gene KAT2B

in vitro [1] = test: in vitro; parameters: species or system CCD841, HEK293; conditions: human, hb2 cells, read-out: HB-2 Cells Viability (%)
in vitro [2] = test: in vitro; parameters: species or system HB2, HEK293; conditions: human, ccd841 cells
in vitro [3] = test: in vitro; parameters: species or system HB2, CCD841; conditions: human, hek293 cells

T2 sequence (P0C024 14-235): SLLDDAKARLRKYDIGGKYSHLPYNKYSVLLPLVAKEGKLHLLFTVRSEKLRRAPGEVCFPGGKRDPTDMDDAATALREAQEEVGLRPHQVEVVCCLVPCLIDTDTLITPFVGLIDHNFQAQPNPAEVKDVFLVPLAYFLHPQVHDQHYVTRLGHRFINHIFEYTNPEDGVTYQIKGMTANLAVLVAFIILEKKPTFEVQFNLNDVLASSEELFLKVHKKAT
T4 sequence (Q92831 whole entry, the tested form may be a part): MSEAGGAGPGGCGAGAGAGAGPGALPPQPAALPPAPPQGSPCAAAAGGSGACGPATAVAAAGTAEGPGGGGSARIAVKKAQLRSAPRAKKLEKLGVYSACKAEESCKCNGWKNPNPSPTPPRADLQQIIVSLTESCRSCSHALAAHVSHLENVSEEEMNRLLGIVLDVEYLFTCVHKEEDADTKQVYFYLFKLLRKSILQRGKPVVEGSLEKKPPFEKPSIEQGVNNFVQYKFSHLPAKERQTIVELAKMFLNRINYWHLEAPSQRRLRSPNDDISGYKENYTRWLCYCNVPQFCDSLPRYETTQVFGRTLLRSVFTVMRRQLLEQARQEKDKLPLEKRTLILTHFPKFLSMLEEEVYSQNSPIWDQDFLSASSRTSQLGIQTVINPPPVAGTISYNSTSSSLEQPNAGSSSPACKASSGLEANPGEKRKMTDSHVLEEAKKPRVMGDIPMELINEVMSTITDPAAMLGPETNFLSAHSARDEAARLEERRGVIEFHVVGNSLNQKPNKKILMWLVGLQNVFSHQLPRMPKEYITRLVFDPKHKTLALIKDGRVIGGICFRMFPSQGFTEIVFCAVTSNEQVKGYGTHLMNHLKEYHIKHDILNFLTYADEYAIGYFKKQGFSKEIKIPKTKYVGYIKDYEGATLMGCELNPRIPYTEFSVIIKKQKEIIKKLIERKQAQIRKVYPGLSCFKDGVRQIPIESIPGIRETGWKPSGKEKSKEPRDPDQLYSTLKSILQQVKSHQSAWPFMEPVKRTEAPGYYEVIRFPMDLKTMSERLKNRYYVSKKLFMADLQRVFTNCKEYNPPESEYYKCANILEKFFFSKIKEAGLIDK
T1 sequence (P02769 whole entry, the tested form may be a part): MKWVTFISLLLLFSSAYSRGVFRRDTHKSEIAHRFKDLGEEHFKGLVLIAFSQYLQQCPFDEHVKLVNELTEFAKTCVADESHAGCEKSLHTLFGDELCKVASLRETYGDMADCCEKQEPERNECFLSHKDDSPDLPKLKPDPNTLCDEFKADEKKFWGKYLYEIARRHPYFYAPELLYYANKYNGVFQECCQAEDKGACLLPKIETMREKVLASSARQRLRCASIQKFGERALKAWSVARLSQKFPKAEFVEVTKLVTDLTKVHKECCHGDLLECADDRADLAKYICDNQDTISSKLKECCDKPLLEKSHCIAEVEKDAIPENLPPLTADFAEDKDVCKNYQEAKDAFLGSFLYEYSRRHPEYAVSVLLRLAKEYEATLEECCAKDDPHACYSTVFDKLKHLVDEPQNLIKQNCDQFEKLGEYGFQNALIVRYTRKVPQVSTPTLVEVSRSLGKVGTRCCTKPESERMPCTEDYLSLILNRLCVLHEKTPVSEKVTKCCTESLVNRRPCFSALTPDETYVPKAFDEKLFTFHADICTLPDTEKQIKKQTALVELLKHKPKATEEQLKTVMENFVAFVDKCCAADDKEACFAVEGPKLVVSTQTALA

C=CC(=O)N1CCC(C(=O)N(C)c2ccccc2)C1 (stereo not shown) [PCM-0102771]
BSA (BSA): 0 | NUDT7 (NUDT7): 0 | OTUB2 (OTUB2 (OTUB2A)): 0 | PCAF (PCAF): 0 | viability at 48 h, 10 µM (in vitro [1]): 100% | viability at 48 h, 10 µM (in vitro [2]): 106% | viability at 48 h, 10 µM (in vitro [3]): 72.2%

C=CC(=O)N1CCC(n2cccn2)CC1 [PCM-0102555]
BSA (BSA): 0 | NUDT7 (NUDT7): 0 | OTUB2 (OTUB2 (OTUB2A)): 0 | PCAF (PCAF): 0 | viability at 48 h, 10 µM (in vitro [1]): 102% | viability at 48 h, 10 µM (in vitro [2]): 104% | viability at 48 h, 10 µM (in vitro [3]): 109%

C=CC(=O)NC(=O)NC12CC3CC(CC(C3)C1)C2 [PCM-0102106]
BSA (BSA): 0 | NUDT7 (NUDT7): 0.79 | OTUB2 (OTUB2 (OTUB2A)): 0 | PCAF (PCAF): 0 | viability at 48 h, 10 µM (in vitro [1]): 26.6% | viability at 48 h, 10 µM (in vitro [2]): 80.9% | viability at 48 h, 10 µM (in vitro [3]): 42%

CC(=O)c1cccc(NC(=O)CCl)c1 [PCM-0102965]
BSA (BSA): 0 | NUDT7 (NUDT7): 0 | OTUB2 (OTUB2 (OTUB2A)): 0.36 | PCAF (PCAF): 0 | viability at 48 h, 10 µM (in vitro [1]): 2.5% | viability at 48 h, 10 µM (in vitro [2]): 11% | viability at 48 h, 10 µM (in vitro [3]): 1.9%

Cc1ccc(S(C)(=O)=O)cc1NC(=O)CCl [PCM-0102858]
BSA (BSA): 0 | NUDT7 (NUDT7): 0 | OTUB2 (OTUB2 (OTUB2A)): 0 | PCAF (PCAF): 0 | viability at 48 h, 10 µM (in vitro [1]): 58.6% | viability at 48 h, 10 µM (in vitro [2]): 66.6% | viability at 48 h, 10 µM (in vitro [3]): 19.2%

COc1ccccc1N1CCN(C(=O)CCl)CC1.Cl [PCM-0102173]
BSA (BSA): 0 | NUDT7 (NUDT7): 0 | OTUB2 (OTUB2 (OTUB2A)): 0 | PCAF (PCAF): 0 | viability at 48 h, 10 µM (in vitro [1]): 44.1% | viability at 48 h, 10 µM (in vitro [2]): 76.9% | viability at 48 h, 10 µM (in vitro [3]): 58.2%

C=CC(=O)N1CCn2c(cc3ccccc32)C1 [PCM-0102621]
BSA (BSA): 0 | NUDT7 (NUDT7): 0 | OTUB2 (OTUB2 (OTUB2A)): 0 | PCAF (PCAF): 0 | viability at 48 h, 10 µM (in vitro [1]): 106% | viability at 48 h, 10 µM (in vitro [2]): 114% | viability at 48 h, 10 µM (in vitro [3]): 85.7%

Cc1csc(N(C(=O)CCl)c2ccccc2)n1 [PCM-0102265]
BSA (BSA): 0 | NUDT7 (NUDT7): 0.19 | OTUB2 (OTUB2 (OTUB2A)): 0.06 | PCAF (PCAF): 0 | viability at 48 h, 10 µM (in vitro [1]): 12.6% | viability at 48 h, 10 µM (in vitro [2]): 36.8% | viability at 48 h, 10 µM (in vitro [3]): 48.6%

CCC1CCCCN1C(=O)CCl (stereo not shown) [PCM-0102828]
BSA (BSA): 0 | NUDT7 (NUDT7): 0.04 | OTUB2 (OTUB2 (OTUB2A)): 0 | PCAF (PCAF): 0 | viability at 48 h, 10 µM (in vitro [1]): 85.9% | viability at 48 h, 10 µM (in vitro [2]): 80.9% | viability at 48 h, 10 µM (in vitro [3]): 69.4%

C=CC(=O)N1CCN(C(C)C)c2ccccc2C1 [PCM-0102888]
BSA (BSA): 0 | NUDT7 (NUDT7): 0 | OTUB2 (OTUB2 (OTUB2A)): 0 | PCAF (PCAF): 0 | viability at 48 h, 10 µM (in vitro [1]): 108% | viability at 48 h, 10 µM (in vitro [2]): 93.1% | viability at 48 h, 10 µM (in vitro [3]): 101%

C=CC(=O)NC1(CO)Cc2ccccc2C1 [PCM-0102446]
BSA (BSA): 0 | NUDT7 (NUDT7): 0.38 | OTUB2 (OTUB2 (OTUB2A)): 0 | PCAF (PCAF): 0 | viability at 48 h, 10 µM (in vitro [1]): 101% | viability at 48 h, 10 µM (in vitro [2]): 103% | viability at 48 h, 10 µM (in vitro [3]): 88.4%

O=C(CCl)N1CCOC2CCCCC21 (stereo not shown) [PCM-0102940]
BSA (BSA): 0 | NUDT7 (NUDT7): 0 | OTUB2 (OTUB2 (OTUB2A)): 0 | PCAF (PCAF): 0 | viability at 48 h, 10 µM (in vitro [1]): 93.7% | viability at 48 h, 10 µM (in vitro [2]): 95.8% | viability at 48 h, 10 µM (in vitro [3]): 74%

C=CC(=O)NC1(C2CC2)CCOCC1 [PCM-0102450]
BSA (BSA): 0 | NUDT7 (NUDT7): 0 | OTUB2 (OTUB2 (OTUB2A)): 0 | PCAF (PCAF): 0 | viability at 48 h, 10 µM (in vitro [1]): 96.2% | viability at 48 h, 10 µM (in vitro [2]): 106% | viability at 48 h, 10 µM (in vitro [3]): 111%

— paper PMC6556873, “Rapid Covalent-Probe Discovery by Electrophile-Fragment Screening” (Journal of the American Chemical Society, 2019)
